EP4752152A1, “STEROID COMPOUND, AND PREPARATION METHOD THEREFOR AND USE THEREOF” (Cholesgen (Shanghai) Co.Ltd., priority 2023, dated 2025)

Test system: SREBP pathway
Test: SREBP luciferase reporter gene system (SRE-luciferase assay)
Assay type: cell-based, human
Details: Huh-7/SRE-luc cells, sterol-deficient medium, 0.01-10 µM
Description: Huh-7/SRE-luc cells were incubated in sterol-deficient medium (5% lipoprotein deficient serum, 2 µM lovastatin, 10 µM mevalonic acid) with corresponding concentrations of compounds for 16 hours. The Huh-7/SRE-luc cells were human hepatoma cell line Huh-7 stably expressing LDLR promotor-luciferase and green fluorescent protein (GFP). These cells were obtained by transfecting Huh-7 with pLDLR-promotor-luciferase and pEGFP-N1 plasmids, followed by screening under G418 antibiotic selection pressure. The Huh-7 cells were purchased from ATCC, the pLDLR-promotor-luciferase plasmid was obtained by molecular cloning methods, and the pEGFP-N1 plasmid was purchased from Addgene.
After compound treatment, the cells were lysed with lysis buffer (E397A, Promega). After the addition of luciferase substrate (E1500, Promega), the activity of SRE-driven luciferase was measured using a BioTek Synergy HTX microplate reader (including but not limited to this type of instrument). The fluorescence intensity of green fluorescent protein (EGFP) was also measured using the above BioTek microplate reader (including but not limited to this type of instrument) and served as an internal control. The ratio of SRE-driven luciferase activity divided by the fluorescence intensity of green fluorescent protein was used as an indicator of SREBP pathway activity. The test data for each test compound were analyzed using Prism software (with the DMSO-treated group as the reference to calculate the compound inhibition rate, fitted using the Prism log(inhibitor) vs. response--Variable slope (four-parameter) model, calculation formula: Y = Bottom + (Top - Bottom)/(1 + 10^((LogIC50 - X) × HillSlope))), to obtain the IC50 parameters of the compounds.
Using the method described in 1.1, the inhibitory effect of the compounds of the present disclosure on the SREBP pathway was tested. The concentration gradient for each compound was designed as 0.01, 0.03, 0.1, 0.3, 1.0, 3.0, and 10 µM, with the vehicle DMSO as the control.

SMILES | IC50 (Homo sapiens, Huh-7, 16 h) | IC50 (16 hours)
COc1nc(C)ccc1C(O)CCC[C@@H](C)[C@H]1CC[C@H]2[C@H]3[C@H](CC[C@]12C)[C@@]1(C)CC[C@H](O)[C@H](O)[C@@H]1CC3(F)F (single isomer, unassigned) [Compound 217, (1R,3aS,3bS,5aR,6R,7S,9aR,9bS,11aR)-4,4-difluoro-1-[(2R,6S)-6-hydroxy-6-(2-methoxy-6-methylpyridin-3-yl)hexan-2-yl]-9a,11a-dimethylhexadecahydro-1H-cyclopenta[1,2-a]phenanthrene-6,7-diol or (1R,3aS,3bS,5aR,6R,7S,9aR,9bS,11aR)-4,4-difluoro-1-[(2R,6R)-6-hydroxy-6-(2-methoxy-6-methylpyridin-3-yl)hexan-2-yl]-9a,11a-dimethylhexadecahydro-1H-cyclopenta[1,2-a]phenanthrene-6,7-diol] | 0.21 µM | 
COc1cc(F)c(C(O)CCC[C@@H](C)[C@H]2CC[C@H]3[C@H]4[C@H](CC[C@]23C)[C@@]2(C)CC[C@H](O)[C@H](O)[C@@H]2CC4(F)F)c(F)c1 (single isomer, unassigned) [Compound 205, (1R,3aS,3bS,5aR,6R,7S,9aR,9bS,11aR)-1-[(2R,6R)-6-(2,6-difluoro-4-methoxyphenyl)-6-hydroxyhexan-2-yl]-4,4-difluoro-9a,11a-dimethylhexadecahydro-1H-cyclopenta[1,2-a]phenanthrene-6,7-diol or (1R,3aS,3bS,5aR,6R,7S,9aR,9bS,11aR)-1-[(2R,6S)-6-(2,6-difluoro-4-methoxyphenyl)-6-hydroxyhexan-2-yl]-4,4-difluoro-9a,11a-dimethylhexadecahydro-1H-cyclopenta[1,2-a]phenanthrene-6,7-diol] | 0.107 µM | 
C[C@H](CCCC(O)c1c(F)ccnc1F)[C@H]1CC[C@H]2[C@H]3[C@H](CC[C@]12C)[C@@]1(C)CC[C@H](O)[C@H](O)[C@@H]1CC3(F)F (stereo partly drawn) [Compound 146, (1R,3aS,3bS,5aR,6R,7S,9aR,9bS,11aR)-1-[(2R)-6-(2,4-difluoropyridin-3-yl)-6-hydroxyhexan-2-yl]-4,4-difluoro-9a,11a-dimethylhexadecahydro-1H-cyclopenta[1,2-a]phenanthrene-6,7-diol] | 0.16 µM | 
C[C@H](CCCC(O)c1cccc2nnn(C)c12)[C@H]1CC[C@H]2[C@H]3[C@H](CC[C@]12C)[C@@]1(C)CC[C@H](O)[C@H](O)[C@@H]1CC3(F)F (single isomer, unassigned) [Compound 277, (1R,3aS,3bS,5aR,6R,7S,9aR,9bS,11aR)-4,4-difluoro-1-[(2R,6S)-6-hydroxy-6-(3-methylbenzo[d][1,2,3]triazol-4-yl)hexan-2-yl]-9a,11a-dimethylhexadecahydro-1H-cyclopenta[1,2-a]phenanthrene-6,7-diol or (1R,3aS,3bS,5aR,6R,7S,9aR,9bS,11aR)-4,4-difluoro-1-[(2R,6R)-6-hydroxy-6-(3-methylbenzo[d][1,2,3]triazol-4-yl)hexan-2-yl]-9a,11a-dimethylhexadecahydro-1H-cyclopenta[1,2-a]phenanthrene-6,7-diol] | 0.369 µM | 
COc1cc(F)c(C(O)CCC[C@@H](C)[C@H]2CC[C@H]3[C@H]4[C@H](CC[C@]23C)[C@@]2(C)CC[C@H](O)[C@H](O)[C@@H]2CC4(F)F)c(OC)c1 (stereo partly drawn) [Compound 182, (1R,3aS,3bS,5aR,6R,7 S,9aR,9bS,11aR)-4,4-Difluoro-1-[(2R)-6-(2-fluoro-4,6-dimethoxyphenyl)-6-hydroxyhexan-2-yl]-9a,11a-dimethylhexadecahydro-1H-cyclopenta[1,2-a]phenanthrene-6,7-diol] | 0.121 µM | 
COc1cc(F)ccc1[C@H](O)CCC[C@@H](C)[C@H]1CC[C@H]2C3=C(F)C[C@H]4[C@@H](O)[C@@H](O)CC[C@]4(C)[C@H]3CC[C@]12C [Compound 132, (1R,3aR,5aR,6R,7S,9aR,9bR,11aR)-4-fluoro-1-[(2R,6R)-6-(4-fluoro-2-methoxyphenyl)-6-hydroxyhexan-2-yl]-9a,11a-dimethyl-2,3,3a,5,5a,6,7,8,9,9a,9b,10,11,11a-tetradecahydro-1H-cyclopenta[1,2-a]phenanthrene-6,7-diol] | 0.096 µM | 
C[C@H](CCCC1(O)CC1)[C@H]1CC[C@H]2[C@H]3[C@H](CC[C@]12C)[C@@]1(C)CC[C@H](O)[C@H](O)[C@@H]1CC3(F)F [Compound 93, (1R,3aS,3bS,5aR,6R,7S,9aR,9bS,11aR)-4,4-difluoro-1-[(2R)-5-(hydroxycyclopropyl)pentan-2-yl]-9a,11a-dimethylhexadecahydro-1H-cyclopenta[1,2-a]phenanthrene-6,7-diol] | 0.613 µM | 
COc1cc(F)c(C(O)CCCC(C)C2CCC3C4C(CCC23C)C2(C)CCC(O)C(O)C2CC4(F)F)c(F)c1 (single isomer, unassigned) [Compound 204, (1R,3aS,3bS,5aR,6R,7S,9aR,9bS,11aR)-1-[(2R,6S)-6-(2,6-difluoro-4-methoxyphenyl)-6-hydroxyhexan-2-yl]-4,4-difluoro-9a,11a-dimethylhexadecahydro-1H-cyclopenta[1,2-a]phenanthrene-6,7-diol or (1R,3aS,3bS,5aR,6R,7S,9aR,9bS,11aR)-1-[(2R,6R)-6-(2,6-difluoro-4-methoxyphenyl)-6-hydroxyhexan-2-yl]-4,4-difluoro-9a,11a-dimethylhexadecahydro-1H-cyclopenta[1,2-a]phenanthrene-6,7-diol] | 0.145 µM | 
C[C@H](CCCC(O)c1nccs1)[C@H]1CC[C@H]2C3=C(F)C[C@H]4[C@@H](O)[C@@H](O)CC[C@]4(C)[C@H]3CC[C@]12C (stereo partly drawn) [Compound 90, (1R,3aR,5aR,6R,7S,9aR,9bR,11aR)-4-fluoro-1-[(2R)-6-hydroxy-6-(1,3-thiazol-2-yl)hexan-2-yl]-9a,11a-dimethyl-2,3,3a,5,5a,6,7,8,9,9a,9b,10,11,11a-tetradecahydro-1H-cyclopenta[1,2-a]phenanthrene-6,7-diol] | 0.379 µM | 
C[C@H](CCCC(O)c1ccc2c(c1)OC(F)(F)O2)[C@H]1CC[C@H]2[C@H]3[C@H](CC[C@]12C)[C@@]1(C)CC[C@H](O)[C@H](O)[C@@H]1CC3(F)F (single isomer, unassigned) [Compound 259, (1R,3aS,3bS,5aR,6R,7S,9aR,9bS,11aR)-1-[(2R,6R)-6-(2,2-difluorobenzo[d][1,3]dioxol-5-yl)-6-hydroxyhexan-2-yl]-4,4-difluoro-9a,11a-dimethylhexadecahydro-1H-cyclopenta[1,2-a]phenanthrene-6,7-diol or (1R,3aS,3bS,5aR,6R,7S,9aR,9bS,11aR)-1-[(2R,6S)-6-(2,2-difluorobenzo[d][1,3]dioxol-5-yl)-6-hydroxyhexan-2-yl]-4,4-difluoro-9a,11a-dimethylhexadecahydro-1H-cyclopenta[1,2-a]phenanthrene-6,7-diol] |  | 0.249 µM
C[C@H](CCCC(O)c1cccc2[nH]ncc12)[C@H]1CC[C@H]2[C@H]3[C@H](CC[C@]12C)[C@@]1(C)CC[C@H](O)[C@H](O)[C@@H]1CC3(F)F (single isomer, unassigned) [Compound 274, (1R,3aS,3bS,5aR,6R,7S,9aR,9bS,11aR)-4,4-difluoro-1-[(2R,6R)-6-hydroxy-6-(1H-indazol-4-yl)hexan-2-yl]-9a,11a-dimethylhexadecahydro-1H-cyclopenta[1,2-a]phenanthrene-6,7-diol or (1R,3aS,3bS,5aR,6R,7S,9aR,9bS,11aR)-4,4-difluoro-1-[(2R,6S)-6-hydroxy-6-(1H-indazol-4-yl)hexan-2-yl]-9a,11a-dimethylhexadecahydro-1H-cyclopenta[1,2-a]phenanthrene-6,7-diol] |  | 0.758 µM
C[C@H](CCC[C@@H](O)c1cccc2cnn(C)c12)[C@H]1CC[C@H]2C3=C(F)C[C@H]4[C@@H](O)[C@@H](O)CC[C@]4(C)[C@H]3CC[C@]12C (single isomer, unassigned) [Compound 246] | 0.139 µM | 
COc1nc(C(O)CCC[C@@H](C)[C@H]2CC[C@H]3[C@H]4[C@H](CC[C@]23C)[C@@]2(C)CC[C@H](O)[C@H](O)[C@@H]2CC4(F)F)cs1 (single isomer, unassigned) [Compound 221, (1R,3aS,3bS,5aR,6R,7S,9aR,9bS,11aR)-4,4-difluoro-1-[(2R,6S)-6-hydroxy-6-(2-methoxy-1,3-thiazol-4-yl)hexan-2-yl]-9a,11a-dimethylhexadecahydro-1H-cyclopenta[1,2-a]phenanthrene-6,7-diol or (1R,3aS,3bS,5aR,6R,7S,9aR,9bS,11aR)-4,4-difluoro-1-[(2R,6R)-6-hydroxy-6-(2-methoxy-1,3-thiazol-4-yl)hexan-2-yl]-9a,11a-dimethylhexadecahydro-1H-cyclopenta[1,2-a]phenanthrene-6,7-diol] |  | 0.183 µM
COc1ccnc(F)c1C(O)CCC[C@@H](C)[C@H]1CC[C@H]2[C@H]3[C@H](CC[C@]12C)[C@@]1(C)CC[C@H](O)[C@H](O)[C@@H]1CC3(F)F (stereo partly drawn) [Compound 149, (1R,3aS,3bS,5aR,6R,7S,9aR,9bS,11aR)-4,4-difluoro-1-[(2R)-6-(2-fluoro-4-methoxypyridin-3-yl)-6-hydroxyhexan-2-yl]-9a,11a-dimethylhexadecahydro-1H-cyclopenta[1,2-a]phenanthrene-6,7-diol] | 0.14 µM | 
